From ChEMBL document CHEMBL1201862, “PubChem BioAssay data set” (2004) come the findings set out here.

The structures appear in SMILES notation.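 Growth conditions: 96-well plates. Treatment: test compound, 48 hours, 5 concentrations. Analysis: linear interpolation between bracketing concentrations; unreached endpoints set to highest concentration. The concentration for 50% growth inhibition is given as GI50.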 Calls of active or inactive are those of the source. No stated cut-off is given here; in the data, active = GI50 up to about 1.1 µM and inactive = higher. A value given as a limit tells only on which side of the number the result lay.

What all share (assay): NCI anticancer screen, dose series, 48 h
The subject of assay [1] is 786-0.
Assay [2] deals with SF-295.
For assay [3], the system named is ACHN.
The subject of assay [4] is CCRF-CEM.
Assay [5] deals with Malme-3M.
Assay [6] relates to PC-3.
In assay [7] the test system is UACC-62.
In assay [8] the test system is HL-60.
Assay [9] relates to BT-549.
Assay [10] concerns IGROV-1.
The subject of assay [11] is Hs-578T.
Assay [12] has as its system NCI-H23.
Assay [13] relates to HCT-116.
The test system of assay [14] is M14.
Assay [15] relates to DU-145.
For assay [16], the system named is SNB-75.
Assay [17] has as its system MOLT-4.
The test system of assay [18] is HOP-92.
For assay [19], the system named is K562.
Assay [20] relates to MCF7.

Take `Cc1cc(O)c(C(C)C)cc1CN1CCCCC1`: the GI50 in assay [1], in [2], in assay [3], in assay [4], in assay [5] and in assay [6] was > 100 µM (inactive) in each case. The GI50 in assay [7], in assay [8], in assay [9], in assay [10], in assay [11] and in assay [12] was > 100 µM (inactive) each time. For the same compound, the GI50 in [13], in [14], in [15], in assay [16], in [17] and in [18] was > 100 µM (inactive) in each case. For the same compound, the GI50 in assay [19] and in assay [20] was > 100 µM (inactive) throughout.
For `O=NN(CCCl)C(=O)NC1CCC(=O)NC1=O` (stereo not given), the GI50 is 61.7 µM (inactive) in assay [1]; 30.3 µM (inactive) in assay [2]; 428 µM (inactive) in assay [3]; 75.5 µM (inactive) in [4]; 221 µM (inactive) in assay [5]; 745 µM (inactive) in [6]. The GI50 was 25.5 µM (inactive) in [7]; 66.7 µM (inactive) in assay [8]; 251 µM (inactive) in [9]; 365 µM (inactive) in [10]; 348 µM (inactive) in assay [11]; 277 µM (inactive) in assay [12]. Also, the GI50 in [13] was 215 µM (inactive); in assay [14], 356 µM (inactive); in assay [15], 337 µM (inactive); in assay [16], 60.5 µM (inactive); in [17], 49.2 µM (inactive); in assay [18] it was 143 µM (inactive). Also, the GI50 in assay [19] was 153 µM (inactive); in assay [20] it was 330 µM (inactive).
Regarding `O=C1C(NCCc2ccc(O)c(O)c2)=CC(=O)c2ncccc21`, the GI50 in assay [1] is 15.3 µM (inactive); in [2] it was 12.6 µM (inactive); in [3] it was 11.1 µM (inactive); in assay [4], 3.22 µM (inactive); in assay [5], 4.95 µM (inactive); in assay [6], 21.9 µM (inactive). Moreover, the GI50 in assay [7] is 5.37 µM (inactive); in assay [8], 15.8 µM (inactive); in assay [9] it was 4.28 µM (inactive); in assay [10], 9.53 µM (inactive); in [11], 5.82 µM (inactive); in assay [12] it was 7.36 µM (inactive). The GI50 in assay [13] was 12.2 µM (inactive); in assay [14] it was 14.7 µM (inactive); in assay [15] it was 9.86 µM (inactive); in assay [16] it was 5.96 µM (inactive); in assay [17], 8.51 µM (inactive); in [18], 20.1 µM (inactive). The GI50 in assay [19] is 2.42 µM (inactive); in assay [20], 4.02 µM (inactive).
As for `COC(=O)C1SC(SC)=NC12c1ccccc1Nc1ccccc12` (stereo not given), the GI50 in [1] is 35.2 µM (inactive); in assay [2], 32.7 µM (inactive); in [3], 36.3 µM (inactive); in assay [4], 31.8 µM (inactive); in [5], 22 µM (inactive); in [6], 28.3 µM (inactive). The GI50 in [7] is 16.6 µM (inactive); in assay [8], 29.5 µM (inactive); in assay [9] it was 24.7 µM (inactive); in assay [10], 30.3 µM (inactive); in [11], 31.7 µM (inactive); in assay [12], 19.8 µM (inactive). The GI50 in [13] is 31.7 µM (inactive); in [14], 18.5 µM (inactive); in assay [15], 36.4 µM (inactive); in assay [16], 51.1 µM (inactive); in assay [17], 22.1 µM (inactive); in [18], 20.8 µM (inactive). Moreover, the GI50 in [19] was 23.9 µM (inactive); in assay [20], 27.7 µM (inactive).
For the compound `O=C1CC(Cl)c2c(Cl)sc(Cl)c21` (stereo not given), the GI50 was 1.47 µM (inactive) in assay [1]; 15.4 µM (inactive) in assay [2]; 1.95 µM (inactive) in assay [3]; 0.255 µM (active) in assay [4]; 1.42 µM (inactive) in assay [5]; 2.2 µM (inactive) in assay [6]. For the same compound, the GI50 in [7] was 2.16 µM (inactive); in assay [8] it was 1.4 µM (inactive); in assay [9], 4.06 µM (inactive); in assay [10], 1.99 µM (inactive); in assay [11], 7.38 µM (inactive); in assay [12], 2.88 µM (inactive). Besides, the GI50 in assay [13] is 1.69 µM (inactive); in [14], 1.88 µM (inactive); in assay [15], 2.47 µM (inactive); in assay [16], 4.56 µM (inactive); in assay [17], 1.23 µM (inactive); in assay [18], 1.74 µM (inactive). The GI50 is 2.85 µM (inactive) in assay [19] and 0.794 µM (active) in assay [20].
Consider `O=C1CCN(CCC(F)(F)C(F)(F)C(F)(F)C(F)(F)C(F)(F)C(F)(F)F)C(=S)N1CCC(F)(F)C(F)(F)C(F)(F)C(F)(F)C(F)(F)C(F)(F)F`, for which the GI50 in assay [1], in assay [2], in [3], in assay [4], in [5] and in [6] was > 100 µM (inactive) in each case. Besides, the GI50 in assay [7], in [8], in assay [9], in assay [10], in assay [11] and in assay [12] was > 100 µM (inactive) in each case. For the same compound, the GI50 in assay [13], in [14], in assay [15], in assay [16], in [17] and in assay [18] was > 100 µM (inactive) each time. Besides, the GI50 in assay [19] and in [20] was > 100 µM (inactive) throughout.
